Reference: PubChem BioAssay AID248 (DTP/NCI, 2004)
Where “and” joins values, the source holds several entries; their conditions need not be identical. Equal values may be shown once. Inconclusive results and toxic doses are left out.

Test system: L1210 leukemia ip in BDF1 mice, survival T/C
Test: NCI In Vivo Anticancer Drug Screen. Data for tumor model L1210 Leukemia (intraperitoneal) in B6D2F1 (BDF1) mice
Conditions: endpoint: mean survival time, higher = longer survival
Procedure, shortened: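 Each compound was tested against a transplantable tumor grown in mice. The endpoint was survival, with treated animals benchmarked against vehicle controls as a simple ratio.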

SMILES: Nc1nc(=S)c2ncn(C3OC(CO)C(O)C3O)c2[nH]1 (centres undefined)
- T/C (dose: 0.09 mg/kg/injection, schedule: Q01DX Z (ip), vehicle: carboxymethylcellulose (CMC)): 109 % of control
- T/C (dose: 0.18 mg/kg/injection, schedule: Q01DX Z (ip), vehicle: carboxymethylcellulose (CMC)): 124 % of control
- T/C (dose: 0.25 mg/kg/injection, schedule: Q01DX015 (ip), vehicle: carboxymethylcellulose (CMC)): 111 % of control and 115 % of control
- T/C (dose: 0.25 mg/kg/injection, schedule: Q01DX015 (ip), vehicle: other): 110 % of control
- T/C (dose: 0.37 mg/kg/injection, schedule: Q01DX Z (ip), vehicle: carboxymethylcellulose (CMC)): 121 % of control
- T/C (dose: 0.4 mg/kg/injection, schedule: Q01DX009 (sc), vehicle: carboxymethylcellulose (CMC)): 98 % of control
- T/C (dose: 0.44 mg/kg/injection, schedule: Q01DX015 (ip), vehicle: carboxymethylcellulose (CMC)): 113 % of control
- T/C (dose: 0.5 mg/kg/injection, schedule: Q01DX015 (ip), vehicle: carboxymethylcellulose (CMC)): 123 % of control
- T/C (dose: 0.5 mg/kg/injection, schedule: Q01DX015 (ip), vehicle: other): 123 % of control
- T/C (dose: 0.5 mg/kg/injection, schedule: Q01DX Z (ip), vehicle: carboxymethylcellulose (CMC)): 151 % of control
- T/C (dose: 0.62 mg/kg/injection, schedule: Q01DX015 (oral), vehicle: carboxymethylcellulose (CMC)): 112 % of control
- T/C (dose: 0.67 mg/kg/injection, schedule: Q01DX015 (ip), vehicle: carboxymethylcellulose (CMC)): 113 % of control
- T/C (dose: 0.8 mg/kg/injection, schedule: Q01DX009 (oral), vehicle: carboxymethylcellulose (CMC)): 105 % of control
- T/C (dose: 0.8 mg/kg/injection, schedule: Q01DX009 (sc), vehicle: carboxymethylcellulose (CMC)): 102 % of control
- T/C (dose: 1.0 mg/kg/injection, schedule: Q01DX015 (ip), vehicle: other): 124 % of control
- T/C (dose: 1.0 mg/kg/injection, schedule: Q01DX Z (ip), vehicle: carboxymethylcellulose (CMC)): 157 % of control
- T/C (dose: 1.25 mg/kg/injection, schedule: Q01DX015 (oral), vehicle: carboxymethylcellulose (CMC)): 124 % of control
- T/C (dose: 1.56 mg/kg/injection, schedule: Q01DX009 (ip), vehicle: saline): 152 % of control and 158 % of control
- T/C (dose: 1.8 mg/kg/injection, schedule: Q## X032 (ip), vehicle: carboxymethylcellulose (CMC)): 120 % of control
- T/C (dose: 2.16 mg/kg/injection, schedule: Q01DX Z (ip), vehicle: carboxymethylcellulose (CMC)): 152 % of control
- T/C (dose: 2.16 mg/kg/injection, schedule: Q01DX Z (oral), vehicle: carboxymethylcellulose (CMC)): 114 % of control
- T/C (dose: 2.7 mg/kg/injection, schedule: Q02DX008 (ip), vehicle: carboxymethylcellulose (CMC)): 152 % of control
- T/C (dose: 3.0 mg/kg/injection, schedule: Q01DX009 (ip), vehicle: saline): 104 % of control
- T/C (dose: 3.0 mg/kg/injection, schedule: Q01DX Z (ip), vehicle: carboxymethylcellulose (CMC)): 152 % of control
- T/C (dose: 4.0 mg/kg/injection, schedule: Q01DX015 (ip), vehicle: carboxymethylcellulose (CMC)): 120 % of control
- T/C (dose: 4.0 mg/kg/injection, schedule: Q01DX Z (ip), vehicle: carboxymethylcellulose (CMC)): 108 % of control
- T/C (dose: 4.0 mg/kg/injection, schedule: Q02DX008 (ip), vehicle: carboxymethylcellulose (CMC)): 153 % of control
- T/C (dose: 4.2 mg/kg/injection, schedule: Q## X032 (ip), vehicle: carboxymethylcellulose (CMC)): 123 % of control
- T/C (dose: 4.6 mg/kg/injection, schedule: Q01DX009 (ip), vehicle: saline): 89 % of control
- T/C (dose: 5.5 mg/kg/injection, schedule: Q## X003 (ip), vehicle: carboxymethylcellulose (CMC)): 156 % of control
- T/C (dose: 5.8 mg/kg/injection, schedule: Q02DX008 (ip), vehicle: carboxymethylcellulose (CMC)): 156 % of control
- T/C (dose: 6.0 mg/kg/injection, schedule: Q01DX Z (ip), vehicle: carboxymethylcellulose (CMC)): 122 % of control
- T/C (dose: 6.0 mg/kg/injection, schedule: Q01DX Z (oral), vehicle: carboxymethylcellulose (CMC)): 150 % of control
- T/C (dose: 6.25 mg/kg/injection, schedule: Q01DX009 (ip), vehicle: saline): 118 % of control
- T/C (dose: 6.4 mg/kg/injection, schedule: Q## X032 (ip), vehicle: carboxymethylcellulose (CMC)): 154 % of control
- T/C (dose: 7.0 mg/kg/injection, schedule: Q01DX Z (ip), vehicle: carboxymethylcellulose (CMC)): 116 % of control
- T/C (dose: 8.0 mg/kg/injection, schedule: Q01DX Z (ip), vehicle: carboxymethylcellulose (CMC)): 110 % of control
- T/C (dose: 8.8 mg/kg/injection, schedule: Q02DX008 (ip), vehicle: carboxymethylcellulose (CMC)): 150 % of control
- T/C (dose: 9.0 mg/kg/injection, schedule: Q01DX Z (ip), vehicle: saline): 105 % of control and 108 % of control
- T/C (dose: 10.0 mg/kg/injection, schedule: Q01DX Z (oral), vehicle: carboxymethylcellulose (CMC)): 119 % of control
- T/C (dose: 10.0 mg/kg/injection, schedule: Q## X004 (ip), vehicle: carboxymethylcellulose (CMC)): 158 % of control
- T/C (dose: 12.5 mg/kg/injection, schedule: Q01DX009 (ip), vehicle: saline): 108 % of control and 123 % of control
- T/C (dose: 13.0 mg/kg/injection, schedule: Q01DX Z (ip), vehicle: saline): 108 % of control
- T/C (dose: 13.0 mg/kg/injection, schedule: Q02DX008 (ip), vehicle: carboxymethylcellulose (CMC)): 119 % of control
- T/C (dose: 14.0 mg/kg/injection, schedule: Q## X032 (ip), vehicle: carboxymethylcellulose (CMC)): 155 % of control
- T/C (dose: 16.0 mg/kg/injection, schedule: Q01DX009 (ip), vehicle: saline): 104 % of control
- T/C (dose: 16.8 mg/kg/injection, schedule: Q01DX Z (oral), vehicle: carboxymethylcellulose (CMC)): 108 % of control
- T/C (dose: 18.8 mg/kg/injection, schedule: Q01DX009 (ip), vehicle: saline): 119 % of control
- T/C (dose: 18.8 mg/kg/injection, schedule: Q01DX Z (ip), vehicle: saline): 103 % of control
- T/C (dose: 20.0 mg/kg/injection, schedule: Q01DX Z (ip), vehicle: saline): 109 % of control
- T/C (dose: 20.0 mg/kg/injection, schedule: Q01DX Z (oral), vehicle: carboxymethylcellulose (CMC)): 122 % of control
- T/C (dose: 22.0 mg/kg/injection, schedule: Q## X032 (ip), vehicle: carboxymethylcellulose (CMC)): 155 % of control
- T/C (dose: 22.5 mg/kg/injection, schedule: Q01DX001 (oral), vehicle: carboxymethylcellulose (CMC)): 154 % of control
- T/C (dose: 25.0 mg/kg/injection, schedule: Q01DX005 (ip), vehicle: saline): 94 % of control and 111 % of control and 117 % of control
- T/C (dose: 25.0 mg/kg/injection, schedule: Q01DX009 (ip), vehicle: saline): 100 % of control and 120 % of control and 94 % of control
- T/C (dose: 30.0 mg/kg/injection, schedule: Q01DX Z (ip), vehicle: saline): 93 % of control
- T/C (dose: 32.0 mg/kg/injection, schedule: Q## X032 (ip), vehicle: carboxymethylcellulose (CMC)): 119 % of control
- T/C (dose: 36.0 mg/kg/injection, schedule: Q## X016 (ip), vehicle: carboxymethylcellulose (CMC)): 122 % of control
- T/C (dose: 37.5 mg/kg/injection, schedule: Q01DX009 (ip), vehicle: saline): 108 % of control
- T/C (dose: 37.5 mg/kg/injection, schedule: Q01DX010 (ip), vehicle: saline): 97 % of control
- T/C (dose: 40.0 mg/kg/injection, schedule: Q01DX Z (oral), vehicle: carboxymethylcellulose (CMC)): 101 % of control
- T/C (dose: 45.0 mg/kg/injection, schedule: Q01DX001 (ip), vehicle: carboxymethylcellulose (CMC)): 155 % of control
- T/C (dose: 45.0 mg/kg/injection, schedule: Q02DX008 (ip), vehicle: carboxymethylcellulose (CMC)): 157 % of control
- T/C (dose: 50.0 mg/kg/injection, schedule: Q01DX001 (ip), vehicle: saline): 96 % of control
- T/C (dose: 50.0 mg/kg/injection, schedule: Q01DX005 (ip), vehicle: saline): 111 % of control
- T/C (dose: 67.0 mg/kg/injection, schedule: Q## X004 (ip), vehicle: carboxymethylcellulose (CMC)): 151 % of control
- T/C (dose: 75.0 mg/kg/injection, schedule: Q01DX009 (ip), vehicle: saline): 96 % of control
- T/C (dose: 90.0 mg/kg/injection, schedule: Q01DX001 (sc), vehicle: carboxymethylcellulose (CMC)): 156 % of control
- T/C (dose: 100.0 mg/kg/injection, schedule: Q01DX001 (ip), vehicle: carboxymethylcellulose (CMC)): 155 % of control
- T/C (dose: 100.0 mg/kg/injection, schedule: Q01DX001 (ip), vehicle: saline): 102 % of control
- T/C (dose: 100.0 mg/kg/injection, schedule: Q01DX009 (ip), vehicle: saline): 104 % of control
- T/C (dose: 144.0 mg/kg/injection, schedule: Q01DX001 (ip), vehicle: carboxymethylcellulose (CMC)): 158 % of control
- T/C (dose: 150.0 mg/kg/injection, schedule: Q01DX001 (ip), vehicle: carboxymethylcellulose (CMC)): 157 % of control
- T/C (dose: 180.0 mg/kg/injection, schedule: Q01DX001 (ip), vehicle: carboxymethylcellulose (CMC)): 154 % of control
- T/C (dose: 180.0 mg/kg/injection, schedule: Q## X002 (ip), vehicle: carboxymethylcellulose (CMC)): 109 % of control
- T/C (dose: 200.0 mg/kg/injection, schedule: Q01DX001 (ip), vehicle: saline): 98 % of control
- T/C (dose: 200.0 mg/kg/injection, schedule: Q01DX005 (ip), vehicle: saline): 120 % of control and 106 % of control
- T/C (dose: 200.0 mg/kg/injection, schedule: Q01DX009 (ip), vehicle: saline): 105 % of control
- T/C (dose: 225.0 mg/kg/injection, schedule: Q01DX001 (ip), vehicle: carboxymethylcellulose (CMC)): 150 % of control
- T/C (dose: 225.0 mg/kg/injection, schedule: Q## X004 (ip), vehicle: carboxymethylcellulose (CMC)): 119 % of control
- T/C (dose: 270.0 mg/kg/injection, schedule: Q01DX001 (ip), vehicle: carboxymethylcellulose (CMC)): 124 % of control
- T/C (dose: 360.0 mg/kg/injection, schedule: Q01DX001 (sc), vehicle: carboxymethylcellulose (CMC)): 95 % of control
- T/C (dose: 360.0 mg/kg/injection, schedule: Q## X003 (oral), vehicle: carboxymethylcellulose (CMC)): 110 % of control
- T/C (dose: 400.0 mg/kg/injection, schedule: Q01DX001 (ip), vehicle: carboxymethylcellulose (CMC)): 103 % of control
- T/C (dose: 400.0 mg/kg/injection, schedule: Q01DX009 (ip), vehicle: saline): 94 % of control
- T/C (dose: 720.0 mg/kg/injection, schedule: Q01DX001 (oral), vehicle: carboxymethylcellulose (CMC)): 109 % of control
- T/C (dose: 84.0 micrograms/kg/injection, schedule: Q01DX Z (ip), vehicle: saline): 121 % of control
- T/C (dose: 120.0 micrograms/kg/injection, schedule: Q01DX Z (ip), vehicle: saline): 115 % of control
- T/C (dose: 290.0 micrograms/kg/injection, schedule: Q01DX Z (ip), vehicle: saline): 151 % of control
